Calls of active or inactive are those of the source. No cut-off for these calls is given here.
Columns and labels:
[1] = biological target: T1, Poly [ADP-ribose] polymerase 1 (Homo sapiens, UniProt P09874); assay: Inhibition of recombinant human full-length PARP-1 using biotinylated substrate
[2] = biological target: T2, Poly [ADP-ribose] polymerase 2 (Homo sapiens, UniProt Q9UGN5); assay: Inhibition of recombinant human full-length PARP-2 using biotinylated substrate
[3] = species: Homo sapiens; assay: Selectivity index, ratio of IC50 for inhibition of recombinant human full-length PARP-2 to IC50 for inhibition of recombinant human full-length PARP-1
[4] = test system: A549; assay: Cytotoxicity against human A549 cells assessed as induction of CBP cytotoxicity incubated for 48 hrs in presence of CBP by MTT assay; type: functional, cell-based; conditions: dose 0.1-10 µM
[5] = test system: A549; assay: Cytotoxicity against human A549 cells assessed as reduction in cell viability at 0.1 to 10 uM incubated for 48 hrs by MTT assay; type: functional, cell-based; conditions: dose 0.1-10 µM
[6] = test system: SK-OV-3; assay: Cytotoxicity against human BRCA-1 deficient SK-OV-3 cells assessed as reduction in cell viability at 0.1 to 10 uM incubated for 48 hrs by MTT assay; type: functional, cell-based; conditions: dose 0.1-10 µM
[7] = Acute toxicity in ICR mouse assessed as change in body weight at 1000 mg/kg, po administered only once at day 1 and measured every two days for 14 days; type: organism-based; conditions: in vivo, 336 h, time 14 day
[8] = Acute toxicity in ICR mouse assessed as change in blood routine at 1000 mg/kg, po administered only once at day 1 and measured every two days for 14 days; type: organism-based; conditions: in vivo, 336 h, time 14 day
[9] = Acute toxicity in ICR mouse assessed as effect on spleen at 1000 mg/kg, po administered only once at day 1 and measured every two days for 14 days; type: organism-based; conditions: in vivo, 336 h, time 14 day
[10] = Acute toxicity in ICR mouse assessed as effect on kidney at 1000 mg/kg, po administered only once at day 1 and measured every two days for 14 days; type: organism-based; conditions: in vivo, 336 h, time 14 day
[11] = Hepatotoxicity in ICR mouse assessed as effect on ALT level at 1000 mg/kg, po administered only once at day 1 and measured every two days for 14 days (reference value: 28.6 +/- 6.9 U/L); type: toxicity, organism-based; conditions: in vivo, 336 h, time 14 day
[12] = Hepatotoxicity in ICR mouse assessed as effect on AST level at 1000 mg/kg, po administered only once at day 1 and measured every two days for 14 days (reference value: 61.5 +/- 3.7 U/L); type: toxicity, organism-based; conditions: in vivo, 336 h, time 14 day
[13] = Renal toxicity in ICR mouse assessed as effect on BUN level at 1000 mg/kg, po administered only once at day 1 and measured every two days for 14 days (reference value: 8.9 +/- 0.9 mmol/L); type: organism-based; conditions: in vivo, 336 h, time 14 day
[14] = biological target: T1, Poly [ADP-ribose] polymerase 1; assay: Inhibition of PARP-1 in human SK-OV-3 cells assessed as decrease in MCM2 protein expression level at 0.1 to 10 uM by Western blot analysis; type: cell-based; conditions: dose 0.1-10 µM
[15] = test system: SK-OV-3; assay: Antitumor activity against human SK-OV-3 cells xenografted in BALB/c nude mouse assessed as decrease in PAR level at 25 to 50 mg/kg, po measured after 28 days by Western blot analysis; type: functional, organism-based; conditions: dose 25-50 mg/kg, time 28.0 day
[16] = test system: SK-OV-3; assay: Antitumor activity against human SK-OV-3 cells xenografted in BALB/c nude mouse assessed as increase in gamma-H2AX expression in tumor at 25 to 50 mg/kg, po measured after 28 days by Western blot analysis; type: functional, organism-based; conditions: dose 25-50 mg/kg, time 28.0 day
[17] = biological target: T1, Poly [ADP-ribose] polymerase 1; assay: Binding affinity to PARP-1 in human SK-OV-3 cells assessed as increase in thermal stabilization of PARP-1 at 1 uM after 3 hrs by CETSA; type: cell-based
[18] = biological target: T2, Poly [ADP-ribose] polymerase 2; assay: Binding affinity to PARP-2 in human SK-OV-3 cells assessed as increase in thermal stabilization of PARP-2 at 1 uM after 3 hrs by CETSA; type: cell-based
[19] = biological target: T1, Poly [ADP-ribose] polymerase 1; assay: Binding affinity to PARP-1 in human SK-OV-3 cells assessed as thermal stabilization after 3 hrs by ITDRF-CETSA; type: cell-based; conditions: dose 0.1-10 µM
[20] = biological target: T2, Poly [ADP-ribose] polymerase 2; assay: Binding affinity to PARP-2 in human SK-OV-3 cells assessed as thermal stabilization after 3 hrs by ITDRF-CETSA; type: cell-based; conditions: dose 0.1-10 µM
[21] = test system: A549; assay: Cytotoxicity against human A549 cells transfected with PARP-1 siRNA assessed as sensitization of CBP at 0.1 to 10 uM incubated for 48 hrs in presence of CBP by MTT assay; type: functional, cell-based; conditions: dose 0.1-10 µM
[22] = test system: SK-OV-3; assay: Cytotoxicity against human SK-OV-3 cells transfected with PARP-1 siRNA assessed as reduction in cell viability at 0.1 to 10 uM after 48 hrs by MTT assay; type: functional, cell-based; conditions: dose 0.1-10 µM
[23] = biological target: T1, Poly [ADP-ribose] polymerase 1; assay: Inhibition of PARP-1 in human SK-OV-3 cells assessed as decrease in MCM3 protein expression level at 0.1 to 10 uM by Western blot analysis; type: cell-based; conditions: dose 0.1-10 µM
[24] = biological target: T1, Poly [ADP-ribose] polymerase 1; assay: Inhibition of PARP-1 in human SK-OV-3 cells assessed as decrease in MCM4 protein expression level at 0.1 to 10 uM by Western blot analysis; type: cell-based; conditions: dose 0.1-10 µM
[25] = biological target: T1, Poly [ADP-ribose] polymerase 1; assay: Inhibition of PARP-1 in human SK-OV-3 cells assessed as decrease in MCM5 protein expression level at 0.1 to 10 uM by Western blot analysis; type: cell-based; conditions: dose 0.1-10 µM
[26] = biological target: T1, Poly [ADP-ribose] polymerase 1; assay: Inhibition of PARP-1 in human SK-OV-3 cells assessed as decrease in MCM6 protein expression level at 0.1 to 10 uM by Western blot analysis; type: cell-based; conditions: dose 0.1-10 µM
[27] = biological target: T1, Poly [ADP-ribose] polymerase 1; assay: Inhibition of PARP-1 in human SK-OV-3 cells assessed as decrease in MCM7 protein expression level at 0.1 to 10 uM by Western blot analysis; type: cell-based; conditions: dose 0.1-10 µM
[28] = biological target: T1, Poly [ADP-ribose] polymerase 1; assay: Inhibition of PARP-1 in human SK-OV-3 cells assessed as induction of DNA damage by measuring increase in gamma H2AX expression by immunofluorescence assay; type: cell-based
[29] = biological target: T1, Poly [ADP-ribose] polymerase 1; assay: Inhibition of PARP-1 in human SK-OV-3 cells assessed as induction of DNA damage by measuring increase in gamma H2AX expression at 0.1 to 10 uM by Western blot analysis; type: cell-based; conditions: dose 0.1-10 µM
[30] = biological target: T1, Poly [ADP-ribose] polymerase 1; assay: Inhibition of PARP-1 in human SK-OV-3 cells assessed as decrease in H2O2-induced PAR level preincubated for 4 hrs followed by H2O2 addition by DAPI staining based inverted fluorescence microscopic analysis; type: cell-based
[31] = biological target: T1, Poly [ADP-ribose] polymerase 1; assay: Inhibition of PARP-1 in human SK-OV-3 cells assessed as decrease in H2O2-induced PAR level at 0.1 to 10 uM preincubated for 4 hrs followed by H2O2 addition by Western blot analysis; type: cell-based; conditions: dose 0.1-10 µM
[32] = test system: A549; assay: Antitumor activity against human A549 cells xenografted in BALB/c nude mouse assessed as induction of CBP mediated tumor growth inhibition at 50 mg/kg, po administered once daily for 12 days in presence of CBP; type: functional, organism-based; conditions: time 12.0 day
[33] = test system: A549; assay: Antitumor activity against human A549 cells xenografted in BALB/c nude mouse assessed as tumor growth inhibition at 50 mg/kg, po administered once daily for 12 days; type: functional, organism-based; conditions: time 12.0 day
[34] = test system: SK-OV-3; assay: Antitumor activity against human SK-OV-3 cells xenografted in BALB/c nude mouse assessed as decrease in tumor volume at 50 mg/kg, po administered once daily measured for 28 days; type: functional, organism-based; conditions: time 28.0 day
[35] = test system: SK-OV-3; assay: Antitumor activity against human SK-OV-3 cells xenografted in BALB/c nude mouse assessed as decrease in PAR level at 25 to 50 mg/kg, po measured after 28 days by immunohistochemistry analysis; type: functional, organism-based; conditions: dose 25-50 mg/kg, time 28.0 day
[36] = test system: SK-OV-3; assay: Antitumor activity against human SK-OV-3 cells xenografted in BALB/c nude mouse assessed as increase in gamma-H2AX expression in tumor at 25 to 50 mg/kg, po measured after 28 days by immunohistochemistry analysis; type: functional, organism-based; conditions: dose 25-50 mg/kg, time 28.0 day

T1 sequence (P09874 whole entry): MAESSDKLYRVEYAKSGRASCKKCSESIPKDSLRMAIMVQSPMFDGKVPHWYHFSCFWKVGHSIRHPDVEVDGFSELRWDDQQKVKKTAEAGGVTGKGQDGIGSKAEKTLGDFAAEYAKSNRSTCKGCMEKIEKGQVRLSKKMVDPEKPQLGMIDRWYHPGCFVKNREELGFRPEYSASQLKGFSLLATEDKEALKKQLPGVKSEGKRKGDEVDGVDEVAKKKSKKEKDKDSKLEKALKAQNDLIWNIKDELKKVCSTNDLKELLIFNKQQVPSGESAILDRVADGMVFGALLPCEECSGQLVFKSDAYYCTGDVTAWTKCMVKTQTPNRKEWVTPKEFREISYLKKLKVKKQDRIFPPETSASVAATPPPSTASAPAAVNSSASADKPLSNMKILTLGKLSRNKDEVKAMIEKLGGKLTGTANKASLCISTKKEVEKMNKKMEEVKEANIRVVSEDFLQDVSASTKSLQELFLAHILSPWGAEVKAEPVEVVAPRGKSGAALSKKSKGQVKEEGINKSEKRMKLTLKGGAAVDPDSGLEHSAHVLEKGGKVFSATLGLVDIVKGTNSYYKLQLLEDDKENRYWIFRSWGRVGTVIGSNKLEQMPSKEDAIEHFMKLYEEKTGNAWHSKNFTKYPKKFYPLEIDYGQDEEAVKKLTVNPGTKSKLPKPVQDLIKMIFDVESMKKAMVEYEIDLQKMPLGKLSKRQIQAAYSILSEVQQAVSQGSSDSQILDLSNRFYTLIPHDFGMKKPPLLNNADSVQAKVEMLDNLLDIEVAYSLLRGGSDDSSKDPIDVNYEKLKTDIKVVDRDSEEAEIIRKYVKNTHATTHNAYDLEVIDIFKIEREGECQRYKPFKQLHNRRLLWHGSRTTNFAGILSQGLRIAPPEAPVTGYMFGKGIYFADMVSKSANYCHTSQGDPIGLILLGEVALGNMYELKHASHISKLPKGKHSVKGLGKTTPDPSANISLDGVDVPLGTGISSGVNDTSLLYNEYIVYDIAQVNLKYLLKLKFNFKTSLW
T2 sequence (Q9UGN5 whole entry): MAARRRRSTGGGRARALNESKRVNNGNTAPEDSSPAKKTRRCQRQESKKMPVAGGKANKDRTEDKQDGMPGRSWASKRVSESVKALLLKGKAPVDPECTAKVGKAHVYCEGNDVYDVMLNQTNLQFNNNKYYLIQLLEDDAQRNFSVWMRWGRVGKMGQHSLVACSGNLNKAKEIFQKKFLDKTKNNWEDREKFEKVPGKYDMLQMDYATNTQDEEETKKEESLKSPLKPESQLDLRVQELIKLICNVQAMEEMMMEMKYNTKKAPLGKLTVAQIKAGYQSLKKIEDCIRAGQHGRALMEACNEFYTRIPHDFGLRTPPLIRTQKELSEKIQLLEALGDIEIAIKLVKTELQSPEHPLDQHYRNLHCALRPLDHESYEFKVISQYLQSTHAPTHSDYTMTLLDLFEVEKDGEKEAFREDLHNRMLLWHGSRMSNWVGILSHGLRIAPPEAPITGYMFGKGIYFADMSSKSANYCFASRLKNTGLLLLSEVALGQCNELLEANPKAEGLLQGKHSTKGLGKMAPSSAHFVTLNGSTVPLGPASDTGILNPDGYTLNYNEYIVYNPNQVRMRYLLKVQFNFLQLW

O=C(c1ccco1)N1CCN(Cc2c(O)cc(O)c3c(=O)cc(-c4ccc(O)cc4)oc23)CC1
IC50 [1]: 13.7 nM | IC50 [2]: 800 nM | Ratio IC50 [3]: 68.3 | Activity [4]: Dose-Dependent Effect | Activity [5]: inactive | Activity [6]: Active | Activity [7]: Non-Toxic | Activity [8]: Non-Toxic | Activity [9]: Toxic | Activity [10]: Toxic | Activity [11]: 31.2 U/L | Activity [12]: 79.3 U/L | Activity [13]: 9.1 mmol/L

O=C(c1cccs1)N1CCN(Cc2c(O)cc(O)c3c(=O)cc(-c4ccc(O)cc4)oc23)CC1
IC50 [1]: 15.8 nM | IC50 [2]: 1100 nM | Ratio IC50 [3]: 69.6 | Activity [4]: Dose-Dependent Effect | Activity [5]: inactive | Activity [6]: Active | Activity [7]: Non-Toxic | Activity [8]: Non-Toxic | Activity [9]: Toxic | Activity [10]: Toxic | Activity [11]: 29.6 U/L | Activity [12]: 77.6 U/L | Activity [13]: 10.3 mmol/L

O=c1cc(-c2ccc(O)cc2)oc2c(CN3CCN(Cc4cccs4)CC3)c(O)cc(O)c12
inhibition [14]: Active | Activity [15]: Active | Activity [16]: Active | Ratio IC50 [3]: 61.2 | Activity [4]: Dose-Dependent Effect | Activity [5]: inactive | Activity [6]: Active | Activity [17]: Active | Activity [18]: Active | Activity [19]: Dose-Dependent Effect | Activity [20]: Dose-Dependent Effect | Activity [21]: inactive | Activity [22]: inactive | inhibition [23]: Active | inhibition [24]: Active | inhibition [25]: Active | inhibition [26]: Active | inhibition [27]: Active | inhibition [28]: Active | inhibition [29]: Active | inhibition [30]: Active | inhibition [31]: Active | Activity [32]: Active | Activity [33]: inactive | Activity [34]: Active | Activity [35]: Active | Activity [36]: Active
